# Experimental data as given in patent US20150105252A1, “SUBSTITUTED PYRAZOLES AS HERBICIDES” (E I DU PONT DE NEMOURS AND COMPANY, priority 2013, published 2015).
# Tests used:
# chamomile [1] = experiment: Test D preemergence; assay type: in vivo, Matricaria inodora; conditions: for Plant response rating, Chamomile: Preemergence, scale 0 to 100
# Outline: (§1)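 Postemergence activity was tested on plants at the 1- to 4-leaf stage (2–18 cm) grown in peat-based medium, and preemergence activity on seeds in silt loam, with chemicals in a surfactant-containing non-phytotoxic solvent. Controlled-environment growth lasted 14–21 days before visual 0–100 scoring.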
# canarygrass = experiment: Test D postemergence; assay type: in vivo, Phalaris minor; conditions: scale 0 to 100
# Outline: as §1
# field violet = experiment: Test D postemergence; assay type: in vivo, Viola arvensis; conditions: scale 0 to 100
# Outline: as §1
# chamomile [2] = experiment: Test D postemergence; assay type: in vivo, Matricaria inodora; conditions: scale 0 to 100
# Outline: as §1
# wheat, spring = experiment: Test D preemergence; assay type: in vivo, Triticum aestivum; conditions: for Plant response rating, Wheat, Spring: Preemergence, scale 0 to 100
# Outline: as §1
# wheat, winter = experiment: Test D preemergence; assay type: in vivo, Triticum aestivum; conditions: for Plant response rating, Wheat, Winter: Preemergence, scale 0 to 100
# Outline: as §1
# oat, wild = experiment: Test D preemergence; assay type: in vivo, Avena fatua; conditions: for Plant response rating, Oat, Wild: Preemergence, scale 0 to 100
# Outline: as §1
# mustard, wild = experiment: Test D preemergence; assay type: in vivo, Sinapis arvensis; conditions: Preemergence, scale 0 to 100
# Outline: as §1
# blackgrass = experiment: Test D preemergence; assay type: in vivo, Alopecurus myosuroides; conditions: for Plant response rating, Blackgrass: Preemergence, scale 0 to 100
# Outline: as §1
# speedwell = experiment: Test D postemergence; assay type: in vivo, Veronica persica; conditions: scale 0 to 100
# Outline: as §1
# lambsquarters = experiment: Test D postemergence; assay type: in vivo, Chenopodium album; conditions: scale 0 to 100
# Outline: as §1
# oilseed rape = experiment: Test D preemergence; assay type: in vivo, Brassica napus; conditions: for Plant response rating, Oilseed Rape: Preemergence, scale 0 to 100
# Outline: as §1
# bluegrass = experiment: Test D preemergence; assay type: in vivo, Poa annua; conditions: for Plant response rating, Bluegrass: Preemergence, scale 0 to 100
# Outline: as §1
# foxtail, green [3] = experiment: Test D preemergence; assay type: in vivo, Setaria viridis; conditions: for Plant response rating, Foxtail, Green: Preemergence, scale 0 to 100
# Outline: as §1
# kochia = experiment: Test D preemergence; assay type: in vivo, Kochia scoparia; conditions: for Plant response rating, Kochia: Preemergence, scale 0 to 100
# Outline: as §1
# galium [4] = experiment: Test D postemergence; assay type: in vivo, Galium aparine; conditions: scale 0 to 100
# Outline: as §1
# barley, spring = experiment: Test D postemergence; assay type: in vivo, Hordeum vulgare; conditions: scale 0 to 100
# Outline: as §1
# barley, winter = experiment: Test D postemergence; assay type: in vivo, Hordeum vulgare; conditions: scale 0 to 100
# Outline: as §1
# galium [5] = experiment: Test D preemergence; assay type: in vivo, Galium aparine; conditions: for Plant response rating, Galium: Preemergence, scale 0 to 100
# Outline: as §1
# foxtail, green [6] = experiment: Test D postemergence; assay type: in vivo, Setaria viridis; conditions: scale 0 to 100
# Outline: as §1
# [7] = 16 g ai/ha, taken as preemergence
structure (smiles),measurement,setting,value
CCc1cc(C(=O)NC2CC2)nn1Cc1ccnc(C(F)(F)F)c1 [Compound 76],"Plant response rating (scale 0 to 100), Chamomile",chamomile [1]; [7],50
same,"Plant response rating, Chamomile",chamomile [1]; 31 g ai/ha,80
same,"Plant response rating, Chamomile",chamomile [1]; 62 g ai/ha,95
same,"Plant response rating, Chamomile",chamomile [1]; 125 g ai/ha,100
same,"Plant response rating, Chamomile",chamomile [1]; 250 g ai/ha,100
same,"Plant response rating, Canarygrass","canarygrass; Postemergence, 16 g ai/ha",5
same,Canarygrass plant response rating,"canarygrass; Postemergence, 31 g ai/ha",5
same,Canarygrass plant response rating,"canarygrass; Postemergence, 125 g ai/ha",10
same,Canarygrass plant response rating,"canarygrass; Postemergence, 250 g ai/ha",15
same,Canarygrass plant response rating,"canarygrass; postemergence, 62 g ai/ha",10
same,"Plant response rating, Field Violet","field violet; Postemergence, 16 g ai/ha",10
same,Field Violet plant response rating,"field violet; Postemergence, 31 g ai/ha",15
same,Field Violet plant response rating,"field violet; Postemergence, 125 g ai/ha",70
same,Field Violet plant response rating,"field violet; Postemergence, 250 g ai/ha",85
same,Field Violet plant response rating,"field violet; postemergence, 62 g ai/ha",20
same,"Plant response rating, Chamomile","chamomile [2]; Postemergence, 16 g ai/ha",10
same,Chamomile plant response rating,"chamomile [2]; Postemergence, 31 g ai/ha",25
same,Chamomile plant response rating,"chamomile [2]; Postemergence, 125 g ai/ha",50
same,Chamomile plant response rating,"chamomile [2]; Postemergence, 250 g ai/ha",55
same,Chamomile plant response rating,"chamomile [2]; postemergence, 62 g ai/ha",30
same,"Plant response rating (scale 0 to 100), Wheat, Spring","wheat, spring; [7]",0
same,"Plant response rating, Wheat, Spring","wheat, spring; 31 g ai/ha",0
same,"Plant response rating, Wheat, Spring","wheat, spring; 62 g ai/ha",10
same,"Plant response rating, Wheat, Spring","wheat, spring; 125 g ai/ha",60
same,"Plant response rating, Wheat, Spring","wheat, spring; 250 g ai/ha",75
same,"Plant response rating (scale 0 to 100), Wheat, Winter","wheat, winter; [7]",0
same,"Plant response rating, Wheat, Winter","wheat, winter; 31 g ai/ha",0
same,"Plant response rating, Wheat, Winter","wheat, winter; 62 g ai/ha",5
same,"Plant response rating, Wheat, Winter","wheat, winter; 125 g ai/ha",40
same,"Plant response rating, Wheat, Winter","wheat, winter; 250 g ai/ha",60
same,"Plant response rating (scale 0 to 100), Oat, Wild","oat, wild; [7]",0
same,"Plant response rating, Oat, Wild","oat, wild; 31 g ai/ha",10
same,"Plant response rating, Oat, Wild","oat, wild; 62 g ai/ha",35
same,"Plant response rating, Oat, Wild","oat, wild; 125 g ai/ha",90
same,"Plant response rating, Oat, Wild","oat, wild; 250 g ai/ha",100
same,"Plant response rating, Mustard, Wild","mustard, wild; 31 g ai/ha",60
same,"Plant response rating, Mustard, Wild","mustard, wild; 62 g ai/ha",100
same,"Plant response rating, Mustard, Wild","mustard, wild; 125 g ai/ha",100
same,"Plant response rating, Mustard, Wild","mustard, wild; 250 g ai/ha",100
same,"Plant response rating (scale 0 to 100), Blackgrass",blackgrass; [7],20
same,"Plant response rating, Blackgrass",blackgrass; 31 g ai/ha,50
same,"Plant response rating, Blackgrass",blackgrass; 62 g ai/ha,100
same,"Plant response rating, Blackgrass",blackgrass; 125 g ai/ha,100
same,"Plant response rating, Blackgrass",blackgrass; 250 g ai/ha,100
same,"Plant response rating, Speedwell","speedwell; Postemergence, 16 g ai/ha",65
same,Speedwell plant response rating,"speedwell; Postemergence, 31 g ai/ha",60
same,Speedwell plant response rating,"speedwell; Postemergence, 125 g ai/ha",75
same,Speedwell plant response rating,"speedwell; Postemergence, 250 g ai/ha",100
same,Speedwell plant response rating,"speedwell; postemergence, 62 g ai/ha",75
same,"Plant response rating, Lambsquarters","lambsquarters; Postemergence, 16 g ai/ha",65
same,Lambsquarters plant response rating,"lambsquarters; Postemergence, 31 g ai/ha",70
same,Lambsquarters plant response rating,"lambsquarters; Postemergence, 125 g ai/ha",95
same,Lambsquarters plant response rating,"lambsquarters; Postemergence, 250 g ai/ha",100
same,Lambsquarters plant response rating,"lambsquarters; postemergence, 62 g ai/ha",75
same,"Plant response rating (scale 0 to 100), Oilseed Rape",oilseed rape; [7],10
same,"Plant response rating, Oilseed Rape",oilseed rape; 31 g ai/ha,30
same,"Plant response rating, Oilseed Rape",oilseed rape; 62 g ai/ha,65
same,"Plant response rating, Oilseed Rape",oilseed rape; 125 g ai/ha,90
same,"Plant response rating, Oilseed Rape",oilseed rape; 250 g ai/ha,100
same,"Plant response rating (scale 0 to 100), Bluegrass",bluegrass; [7],0
same,"Plant response rating, Bluegrass",bluegrass; 31 g ai/ha,0
same,"Plant response rating, Bluegrass",bluegrass; 62 g ai/ha,5
same,"Plant response rating, Bluegrass",bluegrass; 125 g ai/ha,55
same,"Plant response rating, Bluegrass",bluegrass; 250 g ai/ha,100
same,"Plant response rating (scale 0 to 100), Foxtail, Green","foxtail, green [3]; [7]",25
same,"Plant response rating, Foxtail, Green","foxtail, green [3]; 31 g ai/ha",50
same,"Plant response rating, Foxtail, Green","foxtail, green [3]; 62 g ai/ha",100
same,"Plant response rating, Foxtail, Green","foxtail, green [3]; 125 g ai/ha",100
same,"Plant response rating, Foxtail, Green","foxtail, green [3]; 250 g ai/ha",100
same,"Plant response rating (scale 0 to 100), Kochia",kochia; [7],20
same,"Plant response rating, Kochia",kochia; 31 g ai/ha,100
same,"Plant response rating, Kochia",kochia; 62 g ai/ha,100
same,"Plant response rating, Kochia",kochia; 125 g ai/ha,100
same,"Plant response rating, Kochia",kochia; 250 g ai/ha,100
same,"Plant response rating, Galium","galium [4]; Postemergence, 16 g ai/ha",55
same,Galium plant response rating,"galium [4]; Postemergence, 31 g ai/ha",70
same,Galium plant response rating,"galium [4]; Postemergence, 125 g ai/ha",75
same,Galium plant response rating,"galium [4]; Postemergence, 250 g ai/ha",95
same,Galium plant response rating,"galium [4]; postemergence, 62 g ai/ha",75
same,"Barley, Spring plant response rating","barley, spring; Postemergence, 16 g ai/ha",0
same,"Barley, Spring plant response rating","barley, spring; Postemergence, 31 g ai/ha",0
same,"Barley, Spring plant response rating","barley, spring; Postemergence, 125 g ai/ha",10
same,"Barley, Spring plant response rating","barley, spring; Postemergence, 250 g ai/ha",15
same,"Barley, Spring plant response rating","barley, spring; postemergence, 62 g ai/ha",5
same,"Barley, Winter plant response rating","barley, winter; Postemergence, 16 g ai/ha",10
same,"Barley, Winter plant response rating","barley, winter; Postemergence, 31 g ai/ha",10
same,"Barley, Winter plant response rating","barley, winter; Postemergence, 125 g ai/ha",15
same,"Barley, Winter plant response rating","barley, winter; Postemergence, 250 g ai/ha",20
same,"Barley, Winter plant response rating","barley, winter; postemergence, 62 g ai/ha",10
same,"Plant response rating (scale 0 to 100), Galium",galium [5]; [7],25
same,"Plant response rating, Galium",galium [5]; 31 g ai/ha,50
same,"Plant response rating, Galium",galium [5]; 62 g ai/ha,100
same,"Plant response rating, Galium",galium [5]; 125 g ai/ha,100
same,"Plant response rating, Galium",galium [5]; 250 g ai/ha,100
same,"Plant response rating, Foxtail, Green","foxtail, green [6]; Postemergence, 16 g ai/ha",5
same,"Foxtail, Green plant response rating","foxtail, green [6]; Postemergence, 31 g ai/ha",35
same,"Foxtail, Green plant response rating","foxtail, green [6]; Postemergence, 125 g ai/ha",55
same,"Foxtail, Green plant response rating","foxtail, green [6]; Postemergence, 250 g ai/ha",85
same,"Foxtail, Green plant response rating","foxtail, green [6]; postemergence, 62 g ai/ha",15
